{
  "source": "patent US11058772B2",
  "about": "“(Bacterio)chlorophyll photosensitizers for treatment of eye diseases and disorders” (Yeda Research and Development Co. Ltd., priority 2011, dated 2021)",
  "key": {"rabbit cornea [1]": {"system": "rabbit cornea", "assay": "Ex-vivo ESR measurements of rabbit corneas", "settings": "cornea strips, 4-POBN 65 mM, ethanol 8%", "protocol": "All ESR measurements were carried out using a Magnettech ESR Miniscope MS 100 Spectrometer (Germany), with a Microwave X-band Bridge. The ESR spectrometer operates at 9.3-9.55 GHz, 20 mW microwave power. ESR measurements were carried out at room temperature in glass capillaries or flat cells. Eyes of rabbits were enucleated post mortem. The corneas were de-epithelialized mechanically and corneal strips, 5 mm in width, were cut with a self-constructed double-blade cutter. The strips were immediately immersed for 30 min in solutions containing 4-POBN (65 mM) and ethanol (8%), and either Bchl-S or RF-D. Next, the strips were washed with saline and put in the flat-cells (0.5×5 mm^3) for NIR/UVA illumination followed by ESR measurements with the aforementioned Miniscope."}, "[2]": {"system": "de-epithelialized rabbit cornea", "assay": "Depth of penetration into the rabbit cornea, ex vivo (fluorescence microscopy of sagittal slices)", "type": "in vitro ADME", "protocol": "(§1) Eyes of rabbits were enucleated and deepithelialised mechanically post mortem. The eyes were exposed to Bchl-S solution using an eye cap for 5, 10, and 30 minutes and to Bchl-D solution for 10 and 30 min, in darkness. Controls: untreated eyes, and one eye treated with dextran-500 only for 30 min in darkness. Following this pretreatment, the corneas were briefly rinsed with saline and the central 8-mm buttons were trephined, removed, wrapped in aluminum foil and frozen on dry ice until further use. Central serial corneal sagittal slices (12 μm) were cut with a cryomicrotome, mounted on a microscope glass slide and stored frozen in −70° C. until use. For measurement of fluorescence, the individual slices were placed on the microscope base and a photographic record was immediately taken. Fluorescence intensity of Bchl-S or Bchl-D treated corneas from 3 serial cryo sections was recorded at 760 nm, upon excitation at 740 nm, using a fluorescence microscope (BX61 Olympus, Japan) equipped with CCD camera (Cascade 512B, Roper Sci., USA) and a long pass filter of above 760 nm. The digital data was analyzed, using ImageJ software (NIH, USA).\nThe penetration depth of the photosensitizer determines the extent of cornea's tissue exposure to the photodynamic effect. In particular, the deeper the penetration, the higher is the probability for endothelial impairment. To resolve the penetration depth of test compounds following different times of incubation, the digitized fluorescence of dissected corneal discs was monitored using fluorescence microscopy as described in Materials and Methods.\nThe penetration depth of WST11 into the de-epithelialized cornea, following various incubation times, was performed in the darkness in the absence or presence of dextran, using saline or dextran solutions of WST11 (WST11-S or WST11-D solutions, respectively) in 20 eyes of euthanized rabbits. Sagittal frozen sections mounted on glass slides were subjected to fluorescence microscopy. The distribution of WST11 across the cornea was recorded photographically by fluorescence microscopy (excitation/emission 740/760 nm). The controls were 4 untreated eyes and 1 eye treated only with dextran-T 500 for 30 minutes."}, "rabbit sclera": {"system": "rabbit sclera", "assay": "Biomechanical testing of rabbit sclera treated ex vivo, NIR illumination through the anterior eye segment", "settings": "20 min incubation", "protocol": "The corneal and scleral strips were clamped horizontally, at a distance of 6 mm, between the jaws of a microcomputer-controlled biomaterial tester (Minimat, Germany) with a 200 Newton force cell (FIG. 1). Controlled tightening of screws was performed with a calibrated screwdriver at a preset torque of 9 cN.m (Torqueleader, England). The strain was increased linearly at a rate of 1.0 mm/min and was measured up to tissue rupture. Young's modulus was calculated by the testing machine. Ultimate stress and Young's modulus were expressed in Mega Pascal (MPa) units.\nSix eyes of three rabbits were enucleated. The posterior eye area up to the equatorial line was incubated using an eye cap with 2.5 mg/ml solution of WST11 in saline pH 7.3 for 20 minutes and then illuminated by NIR illumination through the anterior cornea using a diode laser (755 nm, 0.5 W) and three mirror fundus lens (FIGS. 18A-18C) for 30 minutes. Strips of sclera were cut and tested as described in Materials and Methods."}, "rabbit cornea [3]": {"system": "rabbit cornea", "assay": "Penetration depth in cornea from aqueous 65% sucrose solution", "type": "in vivo", "settings": "2.5 mg/ml in aqueous 65% sucrose", "protocol": "as §1, with “USA). […]” for “USA).”"}, "[4]": {"system": "rabbit cornea keratocytes", "assay": "Staining for apoptosis (TUNEL assay)", "type": "in vivo", "settings": "one day postoperatively", "protocol": "For apoptosis detection, rabbits were euthanized one day post Bchl-S or Bchl-D treatment. Their corneas were removed, fixated in 4% formaldehyde and embedded in paraffin. […] central sections were prepared from the corneas, placed on microscope slides and deparaffinized. Peroxidase-based terminal deoxyribonucleotidyl transferase-mediated dUTP-digoxigenin nick and labeling (TUNEL) assay was performed according to the manufacturer's instructions (Apop-Tag assay, Chemicon, Merck Millipore, Darmstadt, Germany)."}, "[5]": {"system": "de-epithelialized rabbit cornea", "assay": "Overall accumulation of photosensitizer by the rabbit cornea (optical absorption at 755 nm)", "type": "in vitro ADME", "settings": "exposure to saline solution for 10, 20 and 30 min; increased with time", "protocol": "Eyes of rabbits were de-epithelialised mechanically immediately post mortem. For most studies, 6 rabbits were used, wherein 6 eyes of 6 rabbits were exposed to the bacteriochlorophyll test compound for 10, 20 and 30 minutes (2 eyes for each test) using an eye cap, while the contralateral eyes were left untreated and served as controls. The corneas were removed and the central buttons of 8-mm diameter were punched out with a round trephine and placed onto the outer side of a polymethylmethacrylate cuvette in the area of light beam passage. Absorption spectra were recorded, and optical density (OD) at 600-900 nm (in most cases at 755 nm) was measured using V-570 spectrophotometer (Jam), Japan).\nSix eyes of 3 euthanized rabbits were de-epithelialized mechanically immediately post mortem. Five of these eyes were exposed to WST11 in saline (WST11-S solution) for 10, 20 and 30 min, using an eye cap, and the optical absorption at 755 nm of the washed corneas was determined as described in Materials and Methods. One eye served as untreated control."}},
  "data": [
    {"smiles": "CCC1C2=Cc3c(C)c(C(=O)NCCS(=O)(=O)[O-])c4[n]3[Pd][n]3c(c(C)c(C(C)=O)c3=CC(=N2)C1C)=CC1=NC(=C4CC(=O)OC)C(CCC(=O)[O-])C1C.[K+].[K+]", "note": "(stereo not shown) [WST11, Palladium 3^1-oxo-15-methoxycarbonylmethyl-rhodobacteriochlorin 13^1-(2-sulfoethyl)amide dipotassium salt]", "values": [
      {"measurement": "ESR signals of ROS trapped in the treated cornea", "setting": "rabbit cornea [1]", "value": "no traces of singlet oxygen"},
      {"measurement": "stromal thickness after exposure", "setting": "[2]; 30 min exposure to saline solution, from 360-380 μm", "value": "600-730 μm"},
      {"measurement": "penetration depth into corneal stroma", "setting": "[2]; in saline, no dextran, 10 min exposure, dipotassium salt", "value": "half of the corneal stroma"},
      {"measurement": "penetration depth into corneal stroma", "setting": "[2]; in saline, no dextran, 10 min exposure, listed as WST11-S, dipotassium salt", "value": "entire outer half of the stroma"},
      {"measurement": "penetration depth into corneal stroma", "setting": "[2]; in saline, no dextran, 30 min exposure, dipotassium salt", "value": "entire stroma depth"},
      {"measurement": "penetration depth into corneal stroma", "setting": "[2]; in saline, no dextran, 30 min exposure, listed as WST11-S, dipotassium salt", "value": "all the way to Descemet's membrane"},
      {"measurement": "penetration depth into corneal stroma", "setting": "[2]; with dextran-500, 10 min incubation", "value": "outer ⅓ of the corneal stroma"},
      {"measurement": "penetration depth into corneal stroma", "setting": "[2]; with dextran-500, 30 min incubation", "value": 50, "unit": "%"},
      {"measurement": "increase in Young's modulus", "setting": "rabbit sclera; NIR through anterior cornea", "value": 54, "unit": "%"},
      {"measurement": "increase in maximal stress", "setting": "rabbit sclera; NIR through anterior cornea", "value": 42, "unit": "%"},
      {"measurement": "mean maximal stress", "setting": "rabbit sclera; NIR through anterior cornea 30 min, control 4.65±1.15", "value": "6.59±1.32", "unit": "MPa"},
      {"measurement": "mean Young's modulus", "setting": "rabbit sclera; NIR through anterior cornea 30 min, control 25.25±5.30", "value": "38.83±6.89", "unit": "MPa"},
      {"measurement": "penetration, fraction of the outer stroma", "setting": "rabbit cornea [3]; 10-min incubation", "value": "⅓"},
      {"measurement": "penetration, fraction of the outer stroma", "setting": "rabbit cornea [3]; 30-min incubation", "value": "½"},
      {"measurement": "location of TUNEL-positive keratocytes", "setting": "[4]", "value": "outer ½ of anterior stroma"},
      {"measurement": "optical density of the impregnated corneas at 755 nm", "setting": "[5]", "value": "≤ 1.71", "unit": "OD units"}
    ]}
  ]
}
